Series [1] has as its system coronary heart disease and angina. Kind of series: Clinical summary: coronary heart disease and angina (Table 1-1). Type of series: in vivo, human. The settings on record: Affiliated Hospital Anhui College of TCM, 46 cases. As to the method: After DSP came onto the market in China, a large-scale clinical research project was conducted in China. Although different prescriptions were used in different research projects, all conclusions are written according to “Method of DSP clinic study.” All clinical and experimental markers were standardized. A simplified summary of the results is shown below in Table 1-1.

The test system of series [2] is angina caused by coronary heart disease. Kind of series: Senior group angina, DSP vs Nifedipine. Here is the method: • 1.1 Subjects. […] Medications were taken for 30 days. Patients in both groups used Yongbaoling spray under their tongues during acute onset of symptoms. […] Onset frequency, duration, number of times Yongbaoling was sprayed each day, 12-lead ECG, blood pressure, heartbeat, normal blood urea, liver and kidneys function, and lipoproteins in blood and blood viscosity both before and after treatment. • 1.4 Statistical analysis. The results were measured by t statistic testing, calculated by x^2 statistic testing. • 2. Confirmation of results. Onset frequency and duration with a decrease of 80% or more was regarded as obvious efficacy. A decrease of 50% or more was regarded as efficacy. A decrease of 50% or less was regarded as a failure. Changes in NST and ΣST before and after treatment were used to observe ECG improvement. NST represented the low-pressure 12-lead numbers in section ST; ΣST represented the sum of all low pressure numbers in section ST of 12-lead. Results

The test system of another series is non-symptomatic M-IR. Kind of series: Non-symptomatic M-IR, DSP vs Nifedipine. In kind it is in vivo, human. The following applies: for Efficacy (Number) / Obvious Efficacy (Number): n = 52. The source says:
1. Clinical sample. 52 patients were in the treatment group, which included 39 patients with coronary heart disease, and 4 patients with M-IR, and 9 patients with positive results on the exercise test. There were 38 males and 14 females. 52 patients were in the control group, which included 43 patients with coronary heart disease, 6 patients with M-IR, and 3 patients with positive results on the exercise test. There were 34 males and 18 females (Both groups followed the WHO M-IR-Related Heart Disease and Standard established in 1979).
2. Method of treatment. DSP was given to the treatment group, 10 tablets/medication, 3 times/day. […] Both medications lasted for 4 weeks, and all medications related to the treatment of M-IR were stopped.
3. Result standard. Efficient: Change of ECG ST-T was close to normal; Better: Decreased section ST rose 0.5 mm or more, transverse wave T changed to vertical ones, inverted wave changed 25% or more, conducting resistance was improved; Failure: There was no difference in ECGs before and after treatment.

The test system of the next series is blood stasis. Kind of series: Blood flow (Hb, Lb, P, air flow), DSP vs aspirin. Type of series: in vivo, human. On the set-up: unit not given here. The source says:
Hemorrhage at the atherosclerotic lesions induces platelet activation, coronary thrombosis and blood stasis resulting in impaired blood flow. Thus to improve blood flow, chronic administration of the platelet-activation inhibitor aspirin is recommended for patients with angina. The efficacy of DSP and aspirin improving blood flow was compared by evaluating [Hb, Lb, P and air flow]. DSP improves blood flow as efficiently as aspirin. […].

The test system of another series is thrombosis. As to the kind of experiment: Experimental thrombosis in rats (Umetsu method). In kind it is in vivo. The following applies: experimental thrombo-formation. The source says: • 3. Effects on experimental thrombosis in rats. The Umetsu method is used to carry out the experiment.
A further series has as its system arterial IMT. As to the kind of experiment: Hyperlipidemia, DSP vs aspirin: arterial IMT. In kind it is in vivo, human. As to the method:
(§1) 1.1 Sample. 53 patients were divided into 2 groups, at random: 25 patients in Treatment group (DSP group), and 28 patients in Control group (aspirin group).
(§2) The medication lasted for 6 months. 50 mg enteric aspirin was given to the Control group, 1 time/day orally.
(§3) 1.3 Standard. a) Measurement of IMT (Arterial tunica intima-tunica media). The horizontal and vertical transactions of the whole-length aorta, carotis communis, exterior artery, and subclavial artery were checked 1, 2, 3, and 6 months after treatment. The thickest part of the IMT was measured and recorded. b) Blood flow included whole blood high-viscosity (hHb), whole blood low-viscosity (hLb), plasma viscosity (hP), Aggregation Index of Red blood cells (AIR) etc. c) Measurement of blood lipoprotein included Total blood Cholesterol (TC) and Triglycerides (TG). D) Statistical treatment by matching t statistic testing.

The next series deals with blood viscosity. Kind of series: Hyperlipidemia, DSP vs aspirin: blood flow. Type of series: in vivo, human. Here is the method:
as §1, §2, §3

Another series relates to cardiac arrhythmia. As to the kind of experiment: Cardiac arrhythmia caused by exogenous free radicals, Langendorff rat heart. On the set-up: species or system Wistar rat. The following applies: 1 mg/L verapamil; 50 mg/L DSP; free radicals alone 100%. Here is the method:
Langendorff perfusion device was used to pour ferrous sulfate (0.25 mmol/L)/citrate (1.0 mmol/L) into the Wistar rat's artificial heart. The model of free radicals causing heart rhythm irregularity was replicated to observe the effects of DSP.
(1) Blank group (Normal control). Reperfused with perfusion solution for 45 mins continuously. The change in electrocardiographic pattern was observed.
(2) SP group. DSP was added in 50 mg/L of perfusion solution and perfused for 45 mins continuously. The change in electrocardiographic pattern was observed.
(3) Free-radical-damaging group (Free radicals). After pre-perfusing the artificial heart for 15 mins, it was reperfused with perfusion solution containing ferrous sulfate (0.25 mmol/L)/citrate (1.0 mmol/L) for 30 mins continuously. The change in electrocardiographic pattern was observed.
(4) DSP-protected group (DSP+free radicals): DSP was added into 50 mg/L of perfusion solution and pre-perfused for 15 mins. Ferrous sulfate (0.25 mmol/L/citrate (1.0 mmol/L) was added to the perfusion solution and then infuse for 30 mins continuously. The change in electrocardiographic pattern was observed.
(5) Verapamil-protected group (verapamil+free radicals). […] of verapamil was added to the perfusion solution and preperfused for 15 mins. […]

The mark [3] stands for this setting: clinical results after 30 days, cases (%).

Molecules are shown by their SMILES. Where two headings read alike, the source gives them in different places.

Excerpt for insulin: (§4) Method. The 80 patients were divided into 2 groups: the Control group, with normal treatment, and the DSP group, with 10 DSP tablets, 3 times/day. Testing lasted 4 weeks.
Excerpt for plasma ET: as §4

Consider `COC(=O)C1=C(C)NC(C)=C(C(=O)OC)C1c1ccccc1[N+](=O)[O-]` [Nifedipine], for which, in series [1], the Clinical efficacy % result is “Nifedipine(32; 75%;” and the ECG-Efficacy % is 43.8%). Moreover, in series [2] (20 patients, 30 days), the “Side-effects: felt pain” value was found to be 3 patients, the “Side-effects: slow heartbeat” value is 1 patients and the “Side-effects: swollen ankles” value came out at 2 patients. For the same molecule, in series [2] (after treatment), the NST is reported as 3.90 ± 1.13 and the “Number of Yongbaoling sprays per day” value turned out to be 2.2 ± 0.8. For the same molecule, in [2] (before treatment), the NST is on record as 4.20 ± 1.25 and the “Number of Yongbaoling sprays per day” value was 3.21 ± 1.1. The “Total efficacy, %” value in series [2] (clinical results after 30 days) is reported as 60%. In [2] (setting [3]), the Efficacy is reported as 4 (20.00) %, the Failure is on record as 8 (40.00) % and the “Obvious Efficacy” value is 8 (40.00) %. In the series with non-symptomatic M-IR (1st week), the “Efficacy (%)” value is 25.0%, the “Efficacy (Number)” value is given as 5 and the “Obvious Efficacy (Number)” value was determined as 8. In the series with non-symptomatic M-IR (2nd week), the “Efficacy (%)” value is 30.8%, the “Efficacy (Number)” value was determined as 6 and the “Obvious Efficacy (Number)” value amounted to 10. In the series with non-symptomatic M-IR (3rd week), the “Efficacy (%)” value came to 34.6%, the “Efficacy (Number)” value was 7 and the “Obvious Efficacy (Number)” value was 11. In the series on non-symptomatic M-IR (4th week), the “Efficacy (%)” value came to 38.5%, the “Efficacy (Number)” value is listed as 8 and the “Obvious Efficacy (Number)” value was 12.

As to `CCOC(=O)C1=C(COCCN)NC(C)=C(C(=O)OC)C1c1ccccc1Cl` (stereo not drawn) [Amlodipine], the “Plasma ET” value with plasma ET (after treatment (4 weeks)) was 42.6 ± 4.78 ng/L; with plasma ET (before treatment), 57.2 ± 7.31 ng/L. In addition, the Blood glucose in the series with insulin (60 min, after treatment) is 9.76 ± 0.52 mmol; in the series with insulin (60 min, before treatment), 9.86 ± 0.65 mmol; in the series on insulin (120 min, after treatment), 8.01 ± 0.76 mmol; with insulin (120 min, before treatment), 7.69 ± 0.81 mmol; in the series on insulin (Empty, after treatment), 5.27 ± 0.59 mmol; with insulin (Empty, before treatment) it was 5.19 ± 0.56 mmol. In addition, the Blood insulin was found to be 121.65 ± 1.89 mU/L in the series with insulin (60 min, after treatment); 122.01 ± 1.91 mU/L in the series on insulin (60 min, before treatment); 92.56 ± 1.66 mU/L in the series with insulin (120 min, after treatment); 91.62 ± 1.96 mU/L in the series with insulin (120 min, before treatment); 25.31 ± 1.73 mU/L in the series on insulin (Empty, after treatment); 25.34 ± 1.74 mU/L in the series on insulin (Empty, before treatment).

For `CC(=O)Oc1ccccc1C(=O)O` [aspirin], in the series on blood stasis (Post-), the Air flow was found to be 1.40 ± 0.10, the Hb is on record as 4.28 ± 1.07, the LB turned out to be 8.21 ± 0.3 and the P is reported as 1.67 ± 0.7. Besides, in the series with blood stasis (Pre-), the Air flow is on record as 1.82 ± 0.17, the LB worked out at 10.38 ± 1.96 and the P was 1.89 ± 0.12. The molecule also displayed a Hb with blood stasis (Pre-, 25 patients DSP, 28 aspirin) of 6.12 ± 1.56. The molecule also showed an Average aggregation percentage in the series with thrombosis (Aspirin 30, DSP 50) of 10.6 ± 2.1. The molecule also had an Inhibition % in the series on thrombosis (Aspirin 30, DSP 50 (head: g/kg)) of 49.2%. Besides, the IMT with arterial IMT (after treatment (6 months)) stood at 2.1 ± 0.7 mm. In the series with arterial IMT (before treatment), this molecule had an IMT of 2.0 ± 0.8 mm. Moreover, in the series on blood viscosity (after treatment (6 months)), the AIR worked out at 1.40 ± 0.10, the “η Hb” value is reported as 4.28 ± 1.07 mpa · s, the “η Lb” value was 8.21 ± 1.03 mpa · s and the “η P” value is reported as 1.67 ± 0.07 mpa · s. Besides, in the series with blood viscosity (before treatment), the AIR is on record as 1.82 ± 0.17, the “η Hb” value amounted to 6.12 ± 1.56 mpa · s, the “η Lb” value is reported as 10.38 ± 1.96 mpa · s and the “η P” value was determined as 1.89 ± 0.12 mpa · s.

On to `COc1ccc(CCN(C)CCCC(C#N)(c2ccc(OC)c(OC)c2)C(C)C)cc1OC` (stereo not drawn) [verapamil], for which the “cardiac arrhythmia (irregularity) percentage” value in the series on cardiac arrhythmia is recorded as 71.4%.

(Values after patent US8486464B2, “Herbal composition for angina pectoris, method to prepare same and uses thereof” (Tasly Pharmaceutical Group Co. Ltd., priority 2000, dated 2013).)
